Results on seven molecules are retold here after patent publication US11554123B2, “Compositions and methods for reactivating latent HIV-1 infections” (Saint Joseph's University, priority 2017, dated 2023).

Entries after “also recorded” stand apart in the source; their conditions may differ. Like-named read-outs stand apart in the source and are kept apart here.

What all share (format): cell-based
Series [1] concerns latent HIV-1 in JLat10.6 cell line model of T-cell latency. The following applies: for percentage of GFP+ live cells: 10 μM benzodiazepine used independently, 48 h, FIG. 1A, DMSO background 2.8%; for activation compared with the other tested benzodiazepines (in words): in the presence or absence of SAHA; for maximal effect in dose dependent reactivation (in words): compared with Alprazolam.

Series [2] concerns the target T1, HIV-1 Tat (Human immunodeficiency virus type 1 group M subtype B, UniProt P04608).
T1 construct: expressed in transfected cells; host or cells: TZMbl cells
Conditions: TZMbl cells transfected with Tat plasmid, 24 h treatment, FIG. 3E.

The subject of series [3] is H3K9ac at the integrated HIV-1 long terminal repeat (LTR). The series is described as follows: ChIP for H3K9ac at integrated HIV-1 LTR in TZMbl cells. Conditions: 48 h; for H3K9ac at the HIV-1 LTR versus SAHA alone (in words): 50 μM Ro5-3335, 10 μM Alprazolam or 10 μM Clonazepam with 5 μM SAHA. As to the method:
(§1) TZMbl cells were cultured with benzodiazepines for 48 hours before chromatin immunoprecipitation analysis. Following treatment, cells were processed for chromatin immunoprecipitation using the Pierce Agarose ChIP Kit (Fisher Scientific) using commercially available antibodies against histone H3 lysine 9 acetylation, STATS, and CBP/P300. Degree of occupancy at the integrated HIV-1 LTR was determined by qPCR using HIV-1 LTR specific primers run on a BioRad CFX384 qPCR machine using Sybr Green methodology.
In order to test the changes driven by these compounds, chromatin immunoprecipitation (ChIP) assays were performed to examine the presence of various proteins and modifications at the integrated HIV-1 long terminal repeat (LTR). TZMbl cells were treated for 48 hours with 50 μM Ro5-3335, 10 μM Alprazolam and 10 μM Clonazepam with or without 5 μM SAHA Acetylation of histone 3 at lysine 9 (H3K9ac) was first examined (FIG. 3B). […] None of the benzodiazepines were able to alter H3K9ac when used alone.

The subject of series [4] is CBP/P300. Description: ChIP for CBP/P300 at integrated HIV-1 LTR in TZMbl cells. As to the method: as §1
Therefore, ChIP was performed for STATS to determine if benzodiazepine treatment might increase the recruitment of STATS above SAHA treatment (FIG. 3C). All three benzodiazepines were capable of driving recruitment of STATS to the promoter, and further recruitment was seen when used in combination with SAHA. STATS is capable of recruiting the histone acetyl transferase CBP/P300 that acetylates histone 3 at lysine 27, a residue that is not affected by SAHA. […] Addition of both Ro5-3335 and Alprazolam induced recruitment of CBP/P300 to the HIV-1 LTR (by 3 and 7 fold respectively).

The test system of series [5] is HIV-1 Gag mRNA. Description: HIV-1 Gag mRNA (RTqPCR) in ex vivo treated PBMCs from HIV-1 patients. Conditions: 10 μm Alprazolam, 24 h. The method, then: To evaluate the ability of Alprazolam to reactivate latent cells from patients we obtained PBMCs from two HIV-1 patients who had been suppressed on therapy for greater than 6 months. 10×10^6 PBMCs were divided between three conditions: DMSO control, 50 μM Ro5-3335 and 10 μm Alprazolam. PBMCs were cultured in RPMI with 10% FBS and the given drugs for twenty-four hours. RNA was extracted from the cells and used for RTqPCR to detect HIV-1 Gag mRNA. RNA was extracted using Trizol reagent (Invitrogen) following manufacturer's protocol. Following reverse transcription, the samples were diluted 1:50, and 2.5 microliters were used for quantitative PCR in a BioRad CFX384 qPCR machine. All mRNA analyses were normalized to GAPDH. Nucleic acid amplification was tracked by SYBR Green method.
In order to evaluate the ability of Alprazolam to reactivate latent cells from patients, PBMCs were obtained from two HIV-1 patients who had been suppressed on therapy for greater than 6 months. 10×10^6 PBMCs were divided between three conditions: DMSO control, 50 μM Ro5-3335 and 10 μm Alprazolam. PBMCs were cultured in RPMI with 10% FBS and the given drugs for twenty-four hours. RNA was extracted from the cells and used for RTqPCR to detected HIV-1 Gag mRNA (FIG. 6). […] Treatment with Alprazolam produced detectable reactivation of HIV-1 transcripts.
A general note: Real-time PCR tracks product formation cycle by cycle.

Series [6] relates to primary peripheral blood mononuclear cells (PBMCs) from healthy donors. The series is described as follows: T cell activation in primary PBMCs (CD69 flow cytometry). The following applies: 10 μM Alprazolam in combination with 0.5 μM SAHA, 24 h. As to the method: To investigate whether alprazolam is specifically activating HIV-1 or having general effect on T cell activation (CD4 and CD8), primary PBMC from two healthy donors were treated with 10 μM, 50 μM Alprazolam or Ro5-3335 respectively alone or in combination with 0.5 μM SAHA. Twenty-four hours after treatment, cells were stained using Zombie yellow live and dead staining and then stained for CD3, CD8, CD4, CD69, and then fixed for analysis by flow cytometry. AntiCD3/CD28 and PHA were included as a positive control. Samples were analyzed on a CYTEK® DxP12 flow cytometer followed by analysis using FLOWJO® v10 software (Treestar)
In order to investigate whether alprazolam was specifically activating HIV-1 or having a general effect on T cell activation (CD4 and CD8), primary peripheral blood mononuclear cells (PBMCs) from two healthy donors were treated with 10 μM Alprazolam or 50 μM Ro5-3335, both alone or in combination with 0.5 μM SAHA. Twenty-four hours after treatment, cells were stained using Zombie yellow live and dead staining, then stained for CD3, CD8, CD4, CD69, and then fixed for analysis by flow cytometry. AntiCD3/CD28 and PHA were included as a positive control (FIG. 2B).

Series [7] has as its system IL-17 promoter. Description: IL-17 promoter luciferase reporter assay in 293T cells.
In series [8] the test system is JLat10.6 cells. The series is described as follows: JLat10.6 cell viability (live/dead staining). The following applies: 48 h, DMSO control 97%. As to the method: […] Forty-eight hours after treatment, cells were stained for live dead staining using Live/Dead Red stain (BD Biosciences). Viability was determined by fluorescent detection of the live dead stain using a CYTEK® DxP12 flow cytometer. Comparison to untreated cells was used to determine degree of cell viability.
To examine safety of the treatment and effect on T-cell activation, Jlat10.6 cells were treated with different benzodiazepines with and without SAHA. Forty-eight hours after incubation, cells were harvested and stained with red live/dead staining according to the manufacturer protocol (LIVE/DEAD® Fixable Red Dead Cell Stain Kit, ThermoFisher Scientific) (FIG. 2A). Trichostatin A, used as a positive control induced toxicity (68% viable).

Series [9] has as its system acetylated histone 3 at lysine 9 (H3K9). Description: NUCLEO-M imaging of acetylated H3K9 in isolated nuclei. The following applies: SAHA alone, FIG. 3A. The method, then: Transcriptionally competent nuclei were isolated from TZM-bl cells by chemical lysis and stored following manufacturer's recommendations (Nuclei Isolation Kit: Nuclei EZ Prep, Sigma-Aldrich, Nuc-101). Nuclei were stained for 1 hour on ice in 5% FBS/PBS solution containing primary antibodies. Nuclei were washed twice in 5% FBS/PBS and stained for 1 hour on ice with appropriate secondary antibodies conjugated with fluorescent dyes. Nuclei were finally washed twice in 5% FBS/PBS and resuspended in the storage buffer provided by the kit (Nuclei Isolation Kit: Nuclei EZ Prep, Sigma-Aldrich, Nuc-101).
Isolated nuclei and TZM-bl cells seeded on a chambered coverglass (NUNC® LAB-TEK® Chambered Coverglass, Thermo Fisher) were imaged with a Zeiss AXIOVERT® microscope with a Zeiss alpha PLAN-FLUAR® 100×, 1.45 N.A., oil objective and a spinning disk confocal scan head (Yokogawa CSU-X1). A 488 nm laser source with 488-25 nm, 617-73 nm and 692-40 nm emission filters were used for the illumination of Alexa Fluor® 488 dye (Thermo Fisher) or SYTO® RNA SELECT® Green Fluorescent cell Stain (Thermo Fisher), and PerCP-Cy5.5 (BD Biosciences) respectively. A 561 nm laser source with 568-25 nm emission filters was used for illumination of ALEXA FLUOR® 555 dye (Thermo Fisher). Digital images were captured sequentially by a high-speed EM-CCD camera with 100 ms exposure time (Photometrics EVOLVE® 512). […]

T1 sequence (P04608 whole entry): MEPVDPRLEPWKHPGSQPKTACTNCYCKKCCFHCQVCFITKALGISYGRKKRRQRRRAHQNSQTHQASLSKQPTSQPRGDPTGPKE

On to `Cc1nnc2n1-c1ccc(Cl)cc1C(c1ccccc1)=NC2` [Alprazolam], for which the “percentage of GFP+ live cells” value in series [1] was 20.3%. Moreover, the “GFP+ cells, dose dependent reactivation” value in series [1] (alone, at 10 μM, FIG. 1B, DMSO control 2.8%) turned out to be 25.5%. Besides, the “activation compared with the other tested benzodiazepines (in words)” value in [1] is reported as “maximum activation”. Besides, in [2], the “luciferase expression driven by Tat (in words)” value was “additional activation beyond what was seen with Tat alone”. The “H3K9ac at the HIV-1 LTR versus SAHA alone (in words)” value in series [3] was “further increased acetylation over SAHA alone”. For the same molecule, the “recruitment of CBP/P300 to the HIV-1 LTR” value in series [4] (addition of 50 μM Ro5-3335 or 10 μM Alprazolam, 48 h, FIG. 3D) was determined as 7 fold. In addition, the “increase in HIV-1 Gag RNA” value in series [5] (Patient 1, versus DMSO control) is 4.6 fold; in [5] (Patient 2, versus DMSO control), 3.3 fold. Besides, the “T cell activation (in words)” value in [6] was “did not induce any significant T cell activation”; in series [6] (listed as alprazolam) it was “did not induce significant T-cell activation”. The “IL-17 promoter luciferase activity (in words)” value is “increased luciferase activity” in series [7] (RUNX1 over expression) and “no effect on luciferase activity” in series [7] (in the presence of SAHA). Moreover, the “IL-17 promoter activity (in words)” value in series [7] (absence of SAHA or RUNX1 over expression, lowest dose 0.1 μM) is “statistically significant suppression”.
Turning to `O=C1CN=C(c2ccccc2Cl)c2cc([N+](=O)[O-])ccc2N1` [Clonazepam], in series [1] (alone, FIG. 1B), the “maximal effect in dose dependent reactivation (in words)” value is given as “smaller maximal effect, but at lower doses”. Besides, in series [3], the “H3K9ac at the HIV-1 LTR versus SAHA alone (in words)” value was “potentiation was not seen”.
Regarding `O=C(O)C1N=C(c2ccccc2)c2cc(Cl)ccc2NC1=O` (stereo not shown) [Clorazepate], the “maximal effect in dose dependent reactivation (in words)” value in series [1] (alone, FIG. 1B) is recorded as “smaller maximal effect, but at lower doses”. Besides, the “luciferase expression driven by Tat (in words)” value in [2] is reported as “additional activation beyond what was seen with Tat alone”.
For `CN1C(=O)CN=C(c2ccccc2)c2cc(Cl)ccc21` [Diazepam], in series [1], the “percentage of GFP+ live cells” value worked out at 12.4% and the “activation compared with the other tested benzodiazepines (in words)” value was “maximum activation”.
In the case of `CN1C(=O)CN=C(c2ccccc2F)c2cc([N+](=O)[O-])ccc21` [Flunitrazepam], the “percentage of GFP+ live cells” value in [1] turned out to be 9.1%.
`O=C(CCCCCCC(=O)Nc1ccccc1)NO` [SAHA, N-hydroxy-N′-phenyloctanediamide]: the “GFP+ cells” value in series [1] (0.5 uM SAHA alone, FIG. 1B) stood at 5.9%; in [1] (SAHA alone, FIG. 1A screen, DMSO 2.8%), 6.2%. For the same molecule, the viability in series [8] (0.5 μM SAHA) worked out at 94.6%. In series [3] (5 μM SAHA alone, compared to DMSO control), the “occupancy of H3K9ac at the promoter (in words)” value is listed as “increased the occupancy of H3K9ac”. For the same molecule, the “acetylated H3K9 in the nuclei (in words)” value in series [9] is listed as “increase in acetylated H3K9; also recorded: increase in acetylated histone 3 at lysine 9”. In addition, in series [4] (SAHA alone), the “recruitment of CBP/P300 (in words)” value is on record as “no increase in recruitment”. Moreover, in series [7] (SAHA treatment compared to control), the “IL-17 driven luciferase expression (in words)” value was “increased IL-17 driven luciferase expression”.
In turn, `CC(/C=C/C(=O)NO)=C\[C@@H](C)C(=O)c1ccc(N(C)C)cc1` [Trichostatin A, [R-(E,E)]-7-[4-(Dimethylamino)phenyl]-N-hydroxy-4,6-dimethyl-7-oxo-2,4-heptadienamide] gave a viable cells in series [8] (positive control) of 68%.

As usually defined, the viability is a read-out of living cells in per cent, often relative to untreated cells. A low value points to more harm to the cells.
